Test results from ChEMBL document CHEMBL1250444, “Nitric oxide activates TRP channels by cysteine S-nitrosylation” (Nat Chem Biol, 2006).
Residue numbers refer to the chain shown, from its start. Calls of active or inactive are those of the source. The rule behind the calls is not given here.

How the values were obtained:
[1] = biological target: T1, Short transient receptor potential channel 5 (Homo sapiens) (UniProt Q9UL62); assay: Activation of TRPC5 expressed in BAEC expressing TRPC5 siRNA assessed as increase in Ca2+ level from extracellular space at 100 uM
T1 sequence (whole entry): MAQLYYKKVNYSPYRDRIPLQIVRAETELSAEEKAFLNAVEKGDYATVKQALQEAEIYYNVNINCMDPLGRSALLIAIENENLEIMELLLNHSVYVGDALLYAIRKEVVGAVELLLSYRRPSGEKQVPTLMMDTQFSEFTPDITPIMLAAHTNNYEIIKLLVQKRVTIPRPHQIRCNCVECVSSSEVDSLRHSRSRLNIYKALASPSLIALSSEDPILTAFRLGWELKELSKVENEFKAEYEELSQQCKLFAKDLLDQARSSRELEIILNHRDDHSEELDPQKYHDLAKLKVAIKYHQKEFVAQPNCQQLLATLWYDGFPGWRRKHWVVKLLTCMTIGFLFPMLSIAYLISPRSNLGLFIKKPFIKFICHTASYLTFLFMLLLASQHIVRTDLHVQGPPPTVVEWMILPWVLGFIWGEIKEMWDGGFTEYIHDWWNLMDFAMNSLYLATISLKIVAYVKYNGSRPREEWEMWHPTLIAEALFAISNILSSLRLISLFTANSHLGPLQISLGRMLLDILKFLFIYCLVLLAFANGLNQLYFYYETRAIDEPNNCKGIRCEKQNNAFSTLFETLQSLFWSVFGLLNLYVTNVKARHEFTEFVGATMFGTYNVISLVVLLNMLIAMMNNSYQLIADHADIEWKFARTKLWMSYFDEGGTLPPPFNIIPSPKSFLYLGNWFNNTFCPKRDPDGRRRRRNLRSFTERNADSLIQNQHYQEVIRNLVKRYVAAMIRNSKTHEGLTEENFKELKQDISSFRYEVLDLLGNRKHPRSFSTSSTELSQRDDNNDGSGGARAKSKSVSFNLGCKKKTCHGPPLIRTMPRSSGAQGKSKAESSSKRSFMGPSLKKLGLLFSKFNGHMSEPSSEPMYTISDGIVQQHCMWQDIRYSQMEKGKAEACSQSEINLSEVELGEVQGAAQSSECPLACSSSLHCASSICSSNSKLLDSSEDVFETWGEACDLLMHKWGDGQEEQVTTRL

HEK293 [2] = assay: Activation of rat TRPV1 Cys616 mutant expressed in HEK cells assessed as increase in Ca2+ level from extracellular space at 0.1 to 1 mM; format: cell-based
HEK293 [3] = assay: Induction of rat TRPV1 Cys616 mutant S-nitrosylation expressed in HEK cells assessed as increase in Ca2+ level from extracellular space at 0.1 to 1 mM; format: cell-based
[4] = biological target: Transient receptor potential cation channel subfamily V member 1 (Rattus norvegicus) (UniProt O35433); assay: Activation of rat TRPV1 expressed in HEK cells assessed as increase in Ca2+ level from extracellular space at 300 uM; format: cell-based; settings: HEK293
Sequence of Transient receptor potential cation channel subfamily V member 1 (Rattus norvegicus) (O35433 whole entry): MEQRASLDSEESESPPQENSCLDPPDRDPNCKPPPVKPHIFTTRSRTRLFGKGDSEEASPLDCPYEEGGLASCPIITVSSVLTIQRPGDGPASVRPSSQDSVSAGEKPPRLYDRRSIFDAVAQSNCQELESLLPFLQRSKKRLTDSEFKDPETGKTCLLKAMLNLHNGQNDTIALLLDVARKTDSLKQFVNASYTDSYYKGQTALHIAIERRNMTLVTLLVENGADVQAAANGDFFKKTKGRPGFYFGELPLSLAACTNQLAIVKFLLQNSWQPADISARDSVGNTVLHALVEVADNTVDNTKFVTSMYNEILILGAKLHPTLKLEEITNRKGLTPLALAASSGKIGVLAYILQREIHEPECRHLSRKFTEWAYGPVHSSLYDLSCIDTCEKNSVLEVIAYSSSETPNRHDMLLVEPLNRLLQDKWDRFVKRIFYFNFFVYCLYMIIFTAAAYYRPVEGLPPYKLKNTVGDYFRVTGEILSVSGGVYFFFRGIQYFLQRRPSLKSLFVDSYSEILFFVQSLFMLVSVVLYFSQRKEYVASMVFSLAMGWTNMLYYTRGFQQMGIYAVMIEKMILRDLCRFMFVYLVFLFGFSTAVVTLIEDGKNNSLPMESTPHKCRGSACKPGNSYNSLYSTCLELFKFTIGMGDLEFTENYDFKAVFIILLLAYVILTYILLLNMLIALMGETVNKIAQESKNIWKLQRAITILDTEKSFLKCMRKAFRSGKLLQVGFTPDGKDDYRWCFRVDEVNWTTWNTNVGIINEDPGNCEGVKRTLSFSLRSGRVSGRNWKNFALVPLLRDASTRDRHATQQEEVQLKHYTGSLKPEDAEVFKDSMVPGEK

[5] = test system: T2, Short transient receptor potential channel 5 (Homo sapiens), Q9UL62 [C553S]; assay: Decrease in TRPC5 C553S mutant S-nitrosylation in HEK cells assessed as inhibition of incorporation of DTNB-2Bio at 300 uM relative to control; format: cell-based; settings: HEK293
T2 sequence (whole entry): T1 sequence (whole entry) with C553S

Activity [1]	Activity [4]	Activity [5]	SMILES	Activity (HEK293 [2])	Activity (HEK293 [3])
inactive			O=[N+]([O-])c1ccc(SSc2ccc([N+](=O)[O-])cn2)nc1		
	Active	Active	CC(=O)N[C@@H](C(=O)O)C(C)(C)SN=O (racemic)	inactive	inactive
